Assays:
Test in all cases: Standardized radiometric kinase assays, percentage of activity at 0.5 μM;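 further: Read-out is ³³P-labelled substrate protein phosphorylated by each kinase, captured on filters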
[1] = target: each individual kinase of the panel (Homo sapiens, UniProt P49840)
[2] = target: each individual kinase of the panel (Homo sapiens, UniProt Q06187)
[3] = target: each individual kinase of the panel (Homo sapiens, UniProt O96017, R145W)
[4] = target: each individual kinase of the panel (Homo sapiens, UniProt P53778)
[5] = target: each individual kinase of the panel (Homo sapiens, UniProt P41743)
[6] = target: each individual kinase of the panel (Homo sapiens, UniProt P53667)
[7] = target: each individual kinase of the panel (Homo sapiens, UniProt Q00526)
[8] = target: each individual kinase of the panel (Homo sapiens, UniProt O43353)
[9] = target: each individual kinase of the panel (Homo sapiens, UniProt P43250)
[10] = target: each individual kinase of the panel (Homo sapiens, UniProt Q9Y243)
[11] = target: each individual kinase of the panel (Homo sapiens, UniProt Q5VT25)
[12] = target: each individual kinase of the panel (Homo sapiens, UniProt Q9UIK4)
[13] = target: each individual kinase of the panel (Homo sapiens, UniProt P09769)
[14] = target: each individual kinase of the panel (Homo sapiens, UniProt P51617)
[15] = target: each individual kinase of the panel (Homo sapiens, UniProt Q16513)
[16] = target: each individual kinase of the panel (Homo sapiens, UniProt P54762)
[17] = target: each individual kinase of the panel (Homo sapiens, UniProt Q9BYT3)
[18] = target: each individual kinase of the panel (Homo sapiens, UniProt Q9P286)
[19] = target: each individual kinase of the panel (Homo sapiens, UniProt Q9H2K8)
[20] = target: each individual kinase of the panel (Homo sapiens, UniProt Q05655)
[21] = target: each individual kinase of the panel (Homo sapiens, UniProt P10721, D816V)
[22] = target: each individual kinase of the panel (Homo sapiens, UniProt Q16620)
[23] = target: each individual kinase of the panel (Homo sapiens, UniProt P42685)
[24] = target: each individual kinase of the panel (Homo sapiens, UniProt P22455)
[25] = target: each individual kinase of the panel (Homo sapiens, UniProt P10721, V654A)
[26] = target: each individual kinase of the panel (Homo sapiens, UniProt O96017, I157T)
[27] = target: each individual kinase of the panel (Homo sapiens, UniProt Q7KZI7)
[28] = target: each individual kinase of the panel (Homo sapiens, UniProt P48730)
[29] = target: each individual kinase of the panel (Homo sapiens, UniProt P78362)
[30] = target: each individual kinase of the panel (Homo sapiens, UniProt P14616)
[31] = target: each individual kinase of the panel (Homo sapiens, UniProt P51956)

Sequence of each individual kinase of the panel (Homo sapiens, UniProt P41743) (P41743 2-596 limits assumed): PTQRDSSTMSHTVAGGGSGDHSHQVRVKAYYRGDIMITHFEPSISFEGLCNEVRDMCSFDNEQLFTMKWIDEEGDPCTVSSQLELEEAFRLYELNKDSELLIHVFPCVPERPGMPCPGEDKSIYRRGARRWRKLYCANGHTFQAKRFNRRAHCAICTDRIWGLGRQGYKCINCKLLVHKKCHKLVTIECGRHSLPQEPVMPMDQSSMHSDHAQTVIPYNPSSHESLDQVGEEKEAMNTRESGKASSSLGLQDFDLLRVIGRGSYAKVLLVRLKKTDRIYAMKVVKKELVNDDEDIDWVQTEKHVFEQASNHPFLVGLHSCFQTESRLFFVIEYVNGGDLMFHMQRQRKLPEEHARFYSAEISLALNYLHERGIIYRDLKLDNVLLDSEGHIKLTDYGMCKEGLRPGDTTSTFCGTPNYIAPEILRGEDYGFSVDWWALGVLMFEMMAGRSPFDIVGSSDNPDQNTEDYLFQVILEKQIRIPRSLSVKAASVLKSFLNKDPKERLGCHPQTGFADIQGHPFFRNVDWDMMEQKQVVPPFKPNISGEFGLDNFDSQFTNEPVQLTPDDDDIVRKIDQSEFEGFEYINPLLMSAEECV
Sequence of each individual kinase of the panel (Homo sapiens, UniProt P49840) (P49840 2-483 limits assumed): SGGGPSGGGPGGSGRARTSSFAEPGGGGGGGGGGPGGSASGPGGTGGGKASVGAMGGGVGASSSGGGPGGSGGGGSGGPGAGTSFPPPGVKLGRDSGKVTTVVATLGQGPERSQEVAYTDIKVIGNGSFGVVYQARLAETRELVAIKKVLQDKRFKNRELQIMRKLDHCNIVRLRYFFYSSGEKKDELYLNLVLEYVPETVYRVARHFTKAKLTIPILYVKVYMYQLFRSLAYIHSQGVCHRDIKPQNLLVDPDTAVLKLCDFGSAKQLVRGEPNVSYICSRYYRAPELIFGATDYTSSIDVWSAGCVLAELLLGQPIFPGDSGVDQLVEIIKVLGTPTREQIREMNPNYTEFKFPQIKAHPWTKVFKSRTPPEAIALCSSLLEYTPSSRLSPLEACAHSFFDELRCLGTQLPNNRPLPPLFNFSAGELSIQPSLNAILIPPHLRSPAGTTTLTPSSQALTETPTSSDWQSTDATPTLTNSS
Sequence of each individual kinase of the panel (Homo sapiens, UniProt Q9Y243) (Q9Y243 2-479 limits assumed): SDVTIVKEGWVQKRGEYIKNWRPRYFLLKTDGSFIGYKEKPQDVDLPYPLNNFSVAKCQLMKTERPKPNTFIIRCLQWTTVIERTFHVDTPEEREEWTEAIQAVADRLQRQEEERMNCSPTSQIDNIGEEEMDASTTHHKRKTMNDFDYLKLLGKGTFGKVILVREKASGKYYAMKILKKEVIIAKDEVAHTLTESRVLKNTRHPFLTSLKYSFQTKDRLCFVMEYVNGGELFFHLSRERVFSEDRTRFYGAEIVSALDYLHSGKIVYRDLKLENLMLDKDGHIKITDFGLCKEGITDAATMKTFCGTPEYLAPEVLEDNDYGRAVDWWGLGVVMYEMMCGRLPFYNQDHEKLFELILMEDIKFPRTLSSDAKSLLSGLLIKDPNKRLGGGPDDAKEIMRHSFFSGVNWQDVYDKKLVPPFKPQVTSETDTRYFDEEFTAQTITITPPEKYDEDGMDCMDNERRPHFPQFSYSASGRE
Sequence of each individual kinase of the panel (Homo sapiens, UniProt Q16620) (Q16620 32-822 limits assumed): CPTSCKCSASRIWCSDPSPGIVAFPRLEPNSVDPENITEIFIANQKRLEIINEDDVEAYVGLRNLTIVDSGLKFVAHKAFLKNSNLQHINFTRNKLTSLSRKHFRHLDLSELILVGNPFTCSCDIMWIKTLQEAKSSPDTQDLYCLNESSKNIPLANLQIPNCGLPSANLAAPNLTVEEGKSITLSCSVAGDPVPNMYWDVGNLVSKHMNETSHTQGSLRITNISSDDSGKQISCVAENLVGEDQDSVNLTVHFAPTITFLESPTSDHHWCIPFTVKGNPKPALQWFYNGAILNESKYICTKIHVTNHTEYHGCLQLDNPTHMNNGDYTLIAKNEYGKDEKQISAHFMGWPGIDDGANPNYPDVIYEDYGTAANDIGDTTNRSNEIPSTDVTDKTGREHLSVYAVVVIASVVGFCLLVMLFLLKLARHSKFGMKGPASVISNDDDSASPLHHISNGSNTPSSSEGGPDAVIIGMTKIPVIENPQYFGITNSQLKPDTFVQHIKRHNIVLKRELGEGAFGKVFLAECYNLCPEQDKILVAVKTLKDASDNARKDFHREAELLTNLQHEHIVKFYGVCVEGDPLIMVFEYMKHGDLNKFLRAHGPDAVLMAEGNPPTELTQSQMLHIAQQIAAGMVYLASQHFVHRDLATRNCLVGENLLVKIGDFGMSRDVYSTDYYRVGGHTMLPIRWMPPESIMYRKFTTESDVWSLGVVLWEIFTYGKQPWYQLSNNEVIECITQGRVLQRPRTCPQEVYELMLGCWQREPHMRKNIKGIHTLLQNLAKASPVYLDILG
Sequence of each individual kinase of the panel (Homo sapiens, UniProt P54762) (P54762 18-984 limits assumed): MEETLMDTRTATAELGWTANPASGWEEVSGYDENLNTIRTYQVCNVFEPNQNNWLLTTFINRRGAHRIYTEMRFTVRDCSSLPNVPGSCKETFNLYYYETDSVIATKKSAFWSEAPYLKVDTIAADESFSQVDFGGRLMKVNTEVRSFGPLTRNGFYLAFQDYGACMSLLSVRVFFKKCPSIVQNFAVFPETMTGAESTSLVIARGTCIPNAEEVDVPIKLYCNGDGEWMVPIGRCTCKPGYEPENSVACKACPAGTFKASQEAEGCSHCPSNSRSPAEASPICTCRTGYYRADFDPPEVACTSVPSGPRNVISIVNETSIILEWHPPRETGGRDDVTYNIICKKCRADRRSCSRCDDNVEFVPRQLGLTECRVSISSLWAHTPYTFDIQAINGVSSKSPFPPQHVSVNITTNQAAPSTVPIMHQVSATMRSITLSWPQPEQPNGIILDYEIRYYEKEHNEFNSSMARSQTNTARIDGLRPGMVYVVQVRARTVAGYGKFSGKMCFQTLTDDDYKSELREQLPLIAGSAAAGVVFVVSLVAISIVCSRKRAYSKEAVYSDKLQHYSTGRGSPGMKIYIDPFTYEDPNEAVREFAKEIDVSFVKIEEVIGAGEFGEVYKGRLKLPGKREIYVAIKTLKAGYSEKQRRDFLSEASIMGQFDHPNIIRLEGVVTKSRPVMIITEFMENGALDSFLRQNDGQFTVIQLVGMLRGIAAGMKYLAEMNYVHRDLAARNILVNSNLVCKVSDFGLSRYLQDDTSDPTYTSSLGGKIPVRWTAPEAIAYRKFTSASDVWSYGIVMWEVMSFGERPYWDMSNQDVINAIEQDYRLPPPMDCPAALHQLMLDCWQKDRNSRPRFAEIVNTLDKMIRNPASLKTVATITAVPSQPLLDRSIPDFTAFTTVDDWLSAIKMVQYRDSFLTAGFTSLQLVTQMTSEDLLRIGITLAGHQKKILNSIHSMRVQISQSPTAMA
Sequence of each individual kinase of the panel (Homo sapiens, UniProt Q06187) (Q06187 2-659 limits assumed): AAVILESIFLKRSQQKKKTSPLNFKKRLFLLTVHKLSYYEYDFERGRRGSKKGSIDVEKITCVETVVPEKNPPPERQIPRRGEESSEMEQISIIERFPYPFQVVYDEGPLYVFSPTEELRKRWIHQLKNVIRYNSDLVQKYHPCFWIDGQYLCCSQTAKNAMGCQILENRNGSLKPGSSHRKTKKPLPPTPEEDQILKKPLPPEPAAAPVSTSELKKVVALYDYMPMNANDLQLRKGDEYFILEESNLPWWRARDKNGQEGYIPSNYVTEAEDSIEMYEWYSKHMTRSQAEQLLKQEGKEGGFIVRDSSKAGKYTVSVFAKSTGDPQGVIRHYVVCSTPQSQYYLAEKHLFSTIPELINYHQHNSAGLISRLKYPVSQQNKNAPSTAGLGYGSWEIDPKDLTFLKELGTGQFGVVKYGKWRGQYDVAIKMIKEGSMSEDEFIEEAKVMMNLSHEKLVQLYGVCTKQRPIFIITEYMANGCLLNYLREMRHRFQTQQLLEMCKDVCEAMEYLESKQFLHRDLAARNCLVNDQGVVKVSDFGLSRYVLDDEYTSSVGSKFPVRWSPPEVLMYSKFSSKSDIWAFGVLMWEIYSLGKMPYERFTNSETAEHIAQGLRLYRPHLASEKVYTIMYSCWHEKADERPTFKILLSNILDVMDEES
Sequence of each individual kinase of the panel (Homo sapiens, UniProt P09769) (P09769 2-529 limits assumed): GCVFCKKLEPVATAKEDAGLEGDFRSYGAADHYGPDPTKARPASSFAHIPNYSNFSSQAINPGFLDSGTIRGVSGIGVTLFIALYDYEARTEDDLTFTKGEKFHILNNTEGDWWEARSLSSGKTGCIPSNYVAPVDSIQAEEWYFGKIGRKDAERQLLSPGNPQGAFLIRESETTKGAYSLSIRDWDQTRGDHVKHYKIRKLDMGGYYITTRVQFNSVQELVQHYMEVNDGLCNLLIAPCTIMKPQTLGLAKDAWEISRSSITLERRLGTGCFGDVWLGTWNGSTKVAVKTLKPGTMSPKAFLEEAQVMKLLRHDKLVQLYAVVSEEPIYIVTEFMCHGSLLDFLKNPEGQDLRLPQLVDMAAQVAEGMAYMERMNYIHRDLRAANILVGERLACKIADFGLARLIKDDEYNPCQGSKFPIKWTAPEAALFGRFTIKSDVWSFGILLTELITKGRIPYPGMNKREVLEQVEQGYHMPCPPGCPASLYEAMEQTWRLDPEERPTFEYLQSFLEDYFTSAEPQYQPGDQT

C#Cc1cccc(Nc2nc3cc(C(=O)O)ccc3c3cncnc23)c1 [drawing 1135]
GSK3A percentage of activity [1]: 51%
BTK percentage of activity [2]: −5%
CHK2(R145W) (h) percentage of activity [3]: 0%
p38-gamma percentage of activity [4]: 12%
PRKCI percentage of activity [5]: −5%
LIMK1 percentage of activity [6]: 3%
CDK3/cyclinE percentage of activity [7]: −19%
RIPK2 percentage of activity [8]: 2%
GRK6 percentage of activity [9]: −2%
AKT3 percentage of activity [10]: 0%
MRCKA percentage of activity [11]: −10%
DAPK2 percentage of activity [12]: 91%
FGR percentage of activity [13]: 39%
IRAK1 percentage of activity [14]: 4%
PRK2 percentage of activity [15]: 3%
EPHB1 percentage of activity [16]: 1%
STK33 percentage of activity [17]: 0%
PAK5 percentage of activity [18]: −8%
TAO3 percentage of activity [19]: 22%
PRKCD percentage of activity [20]: 7%
cKit(D816V) percentage of activity [21]: 2%
TRKB percentage of activity [22]: 10%
FRK percentage of activity [23]: 3%
FGFR4 percentage of activity [24]: 14%
cKit(V654A) percentage of activity [25]: 8%
CHK2(1157T) (h) percentage of activity [26]: 3%
PAR-1B alpha percentage of activity [27]: 7%
CK1 delta percentage of activity [28]: −4%
SRPK2 percentage of activity [29]: 36%
INSRR percentage of activity [30]: −21%
NEK3 percentage of activity [31]: −12%

Source: US8168651B2, “Protein kinase modulators” (Cylene Pharmaceuticals, Inc., priority 2008, dated 2012)
